Reference: US11331284B2 (UNM Rainforest Innovations, priority 2017, dated 2022)

What was measured:
[1] = tested on: bone marrow derived macrophages from ATG5 knockouts (autophagy, LC3 puncta); assay: ambroxol dose response assay, LC3 puncta quantified by Cellomics, ATG5 knockout cells; format: cell-based
Text: The inventors next studied the same assay, described above, but in ATG5 knockout cells.

[2] = tested on: TFEB nuclear translocation; assay: ambroxol induction of TFEB nuclear translocation; format: cell-based
[3] = in humans; reference 1; cited from earlier work
[4] = tested on: bone marrow derived macrophages from wild type (autophagy, LC3 puncta); assay: ambroxol dose response assay, LC3 puncta quantified by Cellomics, wild type cells; format: cell-based

EC50 ([2]; read-out: concentration giving 50% of maximal autophagy induced by ambroxol (sigmoidal fit), both data sets, FIGS. 5 and 6): ~50 µM
SMILES: Nc1c(Br)cc(Br)cc1CN[C@H]1CC[C@H](O)CC1 [ambroxol, trans-4-[(2-amino-3,5-dibromobenzyl)amino]cyclohexanol]
dose response of autophagy induction ([1]; FIG. 4): clear dose response
concentration as low as which gave appreciable increases in autophagy ([1]; LC3 puncta, t test v. control p=0.0008, FIG. 4): 6.25 µM
concentration at which significant increases were observed ([2]; FIGS. 5 and 6): 25 µM
plasma half-life [3]: 3.72 h
concentration as low as which had a positive effect on autophagy ([4]; LC3 puncta, pp242 induction = 100%, t test v. control p=0.025, FIG. 3): 6.25 µM
dose response of autophagy induction ([4]; ambroxol 0 to 200 uM, FIG. 3): higher ambroxol concentrations result in higher induction of autophagy
